{"source": "patent US12370193B2", "about": "“Method of inhibiting TREM-1” (UNIVERSITY OF FLORIDA RESEARCH FOUNDATION, INCORPORATED, priority 2019, dated 2025)", "key": {"TREM-1 [1]": {"tested_on": "TREM-1", "experiment": "TREM-1 gene expression in LPS-stimulated RAW264.7 cells (RNA sequencing, qPCR)", "type": "cell-based, mouse", "experimental": "(§1) FIG. 2B are graphs showing TREM-1 gene expression by q-PCR. […] All experiments were performed with 3 biological replicates and the median value of TREM-1 fluorescence was represented by the graph on the bottom.\nQuantitative RT-PCR: Total RNA was extracted from EL4 or RAW264.7 cells using RNeasy Plus Micro Kit (Qiagen) and the RNA was reverse transcribed using the ABI reverse transcription kit (Applied Biosystems/Thermo Fisher Scientific, Waltham MA). Quantitative PCR was performed with a 7900HT Fast Real Time PCR System (Applied Biosystems) using SYBR green (Roche).\nmRNA sequencing analysis: RAW264.7 cells RNA extraction protocol for RNA seq was derived from Qiagen Kit-74106. Total RNA was quantified using the Qubit 2.0 Fluorometer (Invitrogen, Carlsbad, CA) and run on the Agilent 2100 Bioanalyzer (Agilent Technologies, Santa Clara, CA) for quality assessment. RNA samples of good quality with RNA Integrity Number (RIN)>8.0 were further processed. A RNase-free working environment was maintained and RNase-free tips, Eppendorf tubes and plates were utilized for the subsequent steps. Messenger RNA was selectively isolated from total RNA (300 ng input) using poly-T oligos attached to magnetic beads and converted to sequence-ready libraries using the TruSeq stranded mRNA sample prep protocol (Cat. #: RS-122-2101, Illumina, San Diego, CA). The final libraries were validated on the bioanalyzer DNA chips and qPCR quantified using primers that recognize the illumina adaptors. The libraries were then pooled at equimolar ratios, quantified using qPCR and loaded onto the NextSeq 500 flow cell at 1.8 pM final concentration. They were sequenced using the high-output, paired-end, 75-bp chemistry. Demultiplexed and quality filtered raw reads (fastq) generated from the NextSeq 500 were trimmed (adaptor sequences) using Flexbar 2.4 and aligned to the mouse reference database (mm9) using TopHat version 2.0.9 (Trapnell et al., 2009). HTseq-count version 0.6.1 was used to generate gene counts and differential gene expression analysis was performed using Deseq2 (Anders and Huber, 2010)."}, "LXRα LBD": {"target": "T1, LXRα LBD (Homo sapiens, UniProt Q13133)", "T1 construct": "10 μM of the apo protein (LXRα LBD and PPARγ LBD) was mixed with 1:10 molar excess of ligand", "T1 sequence (Q13133 209-447 limits assumed)": "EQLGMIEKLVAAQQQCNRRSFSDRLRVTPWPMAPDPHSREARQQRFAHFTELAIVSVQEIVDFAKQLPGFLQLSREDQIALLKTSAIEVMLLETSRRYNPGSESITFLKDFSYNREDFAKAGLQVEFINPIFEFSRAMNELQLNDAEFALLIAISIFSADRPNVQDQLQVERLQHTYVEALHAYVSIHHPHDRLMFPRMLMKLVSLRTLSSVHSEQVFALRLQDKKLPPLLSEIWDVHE", "experiment": "Differential HDX-MS of LXRα LBD", "type": "binding", "conditions": "1:10 molar excess of ligand", "experimental": "Hydrogen-deuterium exchange (HDX) detected by mass spectrometry (MS): Solution-phase amide HDX experiments were carried out with a fully automated system (CTC HTS PAL, LEAP Technologies, Carrboro, NC; housed inside a 4° C. cabinet) as described previously with the modifications described below^41.\nPeptide Identification: Peptides were identified using tandem MS (MS/MS) experiments performed with a QExactive (ThermoFisher, San Jose, CA) over a 70 min gradient. Product ion spectra were acquired in a data-dependent mode and the five most abundant ions were selected for the product ion analysis per scan event. […]\nHydrogen/deuterium exchange (HDX) analysis: 10 μM of the apo protein (LXRα LBD and PPARγ LBD) was mixed with 1:10 molar excess of ligand and incubated for 2 hours at 4° C. for complex formation before subjecting them to HDX analysis. […] The intensity weighted mean m/z centroid value of each peptide envelope was calculated and subsequently converted into a percentage of deuterium incorporation. […] In the absence of a fully deuterated control, 100% deuterium incorporation was calculated theoretically, and corrections for back-exchange were made on the basis of an estimated 70% deuterium recovery and accounting for 80% final deuterium concentration in the sample (1:5 dilution in D2O HDX buffer). […]"}, "TREM-1 [2]": {"tested_on": "TREM-1", "experiment": "TREM-1 surface expression by FACS in LPS-stimulated RAW264.7 cells", "type": "cell-based, mouse", "conditions": "50 hr incubation", "experimental": "as §1\nFlow cytometry and antibodies: For the analysis of macrophage activation, RAW264.7 cells (American Type Culture Collection) were pre-incubated with 5 μM 1903 for 18 h then stimulated with 1 μg/mL LPS (Escherichia coli 0127:B8, Sigma-Aldrich (St. Louis, MO)) for 6 h. RAW264.7 cells were stained with APC conjugated anti-TREM-1 antibody (eBioscience). Cell sorting was performed using LSRII (BD Bioscience)."}}}
{"compound": "Cc1cc(CN2CCN(Cc3ccncc3)CC2)ccc1-c1ccc(C(O)(C(F)(F)F)C(F)(F)F)cc1", "note": "[SR1903, 1,1,1,3,3,3-hexafluoro-2-(2′-methyl-4′-((4-(pyridin-4-ylmethyl)piperazin-1-yl)methyl)-[1,1′-biphenyl]-4-yl)propan-2-ol]", "values": [{"measurement": "LPS induction of TREM-1 gene expression (qPCR)", "setting": "TREM-1 [1]; 26 hr exposure", "result": "significantly repressed"}, {"measurement": "LPS induction of TREM-1 gene expression (qPCR)", "setting": "TREM-1 [1]; 50 hr treatment", "result": "maintained repression"}, {"measurement": "TREM1 signaling expression (RNA sequencing)", "setting": "TREM-1 [1]; LPS-stimulated RAW264.7 cells, 10 μM compound vs DMSO-only", "result": "significantly suppressed"}, {"measurement": "deuterium exchange of LXRα LBD", "setting": "LXRα LBD", "result": "makes a direct interaction with the receptor"}, {"measurement": "LPS-induced TREM1 cell surface expression", "setting": "TREM-1 [2]", "result": "completely blocked"}]}
